The values that follow come from PMC13058460, “PET-MRI biomarkers reveal efficacy of a novel NLRP3 inhibitor in Parkinson’s disease models” (Brain, 2025).

Molecules are shown by their SMILES. A value given as a limit tells only on which side of the number the result lay.

The term IC50 denotes the concentration needed to halve the response being measured. In general, fraction unbound refers to the share of the substance not bound to proteins or other matrix. The term half-life denotes the time needed for the level to fall by half in the phase considered. A high value points to slow decline.

Series [1] concerns the target CYP3A4 (Homo sapiens, UniProt P08684). In words: CYP3A4 inhibition.
Method: (§3) LM – Liver microsome (half-life in minutes)
PPB – Plasma Protein Binding
(§4) PS – Plasma Stability (% remaining at 2 hours)
Series [2] in a line: Mouse plasma protein binding.
Method: as §3
PPB – Plasma Protein Binding
as §4
Series [3] has as its target CYP2D6 (Homo sapiens, UniProt P10635). The series can be described thus: CYP2D6 inhibition.
Method: as §3
PPB – Plasma Protein Binding
as §4
Series [4] deals with 6-OHDA Parkinson's mouse model. In words: 6-OHDA mouse model, PET/MRI imaging study with MCC7840 in drinking water. Format: in vivo. The conditions noted are these: 0.3 mg/ml in drinking water. On the procedure: (§1) The Supplementary material contains detailed treatment regimens.
(§2) Blood was collected in ethylenediaminetetraacetic acid (EDTA) tubes, plasma aliquoted and stored at −80°C. IL-1β was quantified by ELISA (R&D Systems). Extended methods are in the Supplementary material.
On Days 24–28 post-surgery, mice underwent PET/MRI with ^18F-DPA-714 (Day 24), ^18F-FBCTT (Day 26) and ^18F-FDOPA (Day 28) to assess microglial activation, dopamine transporter function and presynaptic dopamine synthesis, respectively. Standardized uptake value ratios (SUVRs) were calculated as ipsilateral/contralateral striatum ratios. Detailed acquisition and analysis methods are provided in the Supplementary material.
The microglial IC50 and IC90 values are shown with dotted lines. (B) Schematic of the 6-OHDA imaging study [created in BioRender. […] (C) Amphetamine-induced ipsilateral rotations at Day 17. (D–F) Structures of ^18F-DPA-714, ^18F-FBCTT and ^18F-FDOPA. […] (H) Time-activity curves for ^18F-DPA-714 generated from dynamic imaging and presented as standard uptake value ratio from ipsilateral to contralateral hemispheres (standardized uptake value ratio, SUV-ratios). The 60 min imaging time point is shown on the right. (I) Representative brain PET/MRI images and (J) quantitative SUV-ratios for ^18F-FBCTT. […] (K) Representative brain PET/MRI images and (L) quantitative SUV-ratios for ^18F-FDOPA. […] (M–O) MRI blood–brain barrier leakage measurement of gadolinium T1 relaxation time values in ipsilateral (M) and contralateral (N) hemispheres and expressed as a ratio (O). (P) Plasma IL-1β concentrations in mice at Day 28. […] SUV-BW = standard uptake value corrected for body weight.
To perform PET imaging, the same mouse was intravenously administered three radiotracers at sequential time points: ^18F-DPA-714 at Day 24 to label TSPO and neuroinflammation (Fig. 5D), ^18F-FBCTT at Day 26 to label dopamine transporter (DAT) availability (Fig. 5E)[42] and ^18F-FDOPA at Day 28 to label dopamine uptake (Fig. 5F),[43] following 6-OHDA or saline injection. At each time point, mice were anaesthetized and imaged using PET/MRI to visualize radiotracer uptake in the brains of living mice (Fig. 5B).
DOPA and F-rac-DOPA. Chiral HPLC method: Daicel Crownpak CR+ (4.0 × 150mm x 5µm, Part No. 27714), Flow rate = 0.8ml/min with 100% (perchloric acid pH 2.0).
PET/MRI imaging in the 6-OHDA model
Twenty-four days post-surgery, mice from each experimental group were injected with a radiotracer every second day in a group of 3-4 mice per imaging week. Three different radiotracers were used on three different days. [18F]DPA-714 (24th day post-surgery) was used to target the translocator protein, TSPO, overexpressed in activated microglia during neuroinflammation. […]

In series [5] the test system is PFF-Syn mouse model. The series can be described thus: PFF-Syn Parkinson's disease mouse model, preventative and therapeutic dosing in drinking water. Format: in vivo. On the procedure:
Recombinant human α-synuclein (rPeptide) was incubated in PBS at 37°C, 400 rpm, for 7 days with daily sonication cycle. Fibril formation was validated by transmission electron microscopy (TEM) and Thioflavin T fluorescence.[34],[35]
as §1, §2
Mice traversed a 0.5 cm × 1 m beam apparatus; latency to cross was measured at 4, 6, 8 and 10 months post-PFF-Syn.
Accelerated rotarod (5–40 rpm over 5 min) assessed latency to fall at 4, 6, 8 and 10 months post-PFF-Syn as previously described.[17],[18]
At 11 months post-PFF injection, mice were scanned with ^18F-DPA-714 PET/MRI. Regions of interest (ROIs) were anatomically defined in striatum using MRI guidance. SUVRs and T1 relaxation times were calculated. Extended imaging parameters are in the Supplementary material.
(A) Schematic of the PFF-Syn study [created in BioRender. […] (B–E) Rotarod and (F–I) balance-beam testing of mice at 4, 6, 8 and 10 months post PFF-Syn or saline injection (n = 8–10/group). […] (K) Time-activity curves for ^18F-DPA-714 generated from dynamic imaging and presented as standard uptake value ratio (SUV-ratio) from ipsilateral to contralateral hemispheres (n = 4–8/group). (L) Sixty minute SUV-ratio time point for data in L. (M) Representative autoradiography images for ^18F-DPA-714 from brain slices taken following PET imaging. (N) Quantitation of ^18F-DPA-714 autoradiography, and blockade of signal with PK11195. (O) Representative immunohistochemistry for microglial marker ionized calcium-binding adaptor molecule 1 (Iba1; green) from brain slices taken following PET imaging; cell nuclei 4′,6-diamidino-2-phenylindole (DAPI; blue). Square dotted line box in M represents approximate region imaged; magnification ×40, scale bars = 20 μm. (P) Ipsilateral striatal dopamine quantitation, and (Q) plasma interleukin (IL)-1β concentrations in mice after completion of PET imaging experiments (n = 4–8/group).

Series [6] is described as follows: Mouse liver microsome stability. Particulars: liver microsomes. (In general: Liver microsomes are vesicles of endoplasmic reticulum, rich in cytochrome P450 enzymes.)
Method: as §3
PPB – Plasma Protein Binding
as §4
The mark [7] stands for this setting: 6, 8 and 10 months, both preventative and therapeutic groups.

CYP3A4, sequence (P08684 whole entry): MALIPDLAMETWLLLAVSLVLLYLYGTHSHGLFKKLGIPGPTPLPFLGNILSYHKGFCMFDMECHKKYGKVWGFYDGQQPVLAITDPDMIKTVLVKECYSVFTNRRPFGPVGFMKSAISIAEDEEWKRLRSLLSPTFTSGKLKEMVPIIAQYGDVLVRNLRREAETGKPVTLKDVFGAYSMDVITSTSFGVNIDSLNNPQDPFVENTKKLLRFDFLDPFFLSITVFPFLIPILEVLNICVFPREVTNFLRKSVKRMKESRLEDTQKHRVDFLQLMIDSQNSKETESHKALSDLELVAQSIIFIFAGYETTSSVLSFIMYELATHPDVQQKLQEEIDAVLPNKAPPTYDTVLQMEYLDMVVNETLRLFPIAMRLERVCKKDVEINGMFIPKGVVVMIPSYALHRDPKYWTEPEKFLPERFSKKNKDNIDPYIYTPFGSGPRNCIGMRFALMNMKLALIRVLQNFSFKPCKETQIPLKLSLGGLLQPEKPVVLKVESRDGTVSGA
CYP2D6, sequence (P10635 whole entry): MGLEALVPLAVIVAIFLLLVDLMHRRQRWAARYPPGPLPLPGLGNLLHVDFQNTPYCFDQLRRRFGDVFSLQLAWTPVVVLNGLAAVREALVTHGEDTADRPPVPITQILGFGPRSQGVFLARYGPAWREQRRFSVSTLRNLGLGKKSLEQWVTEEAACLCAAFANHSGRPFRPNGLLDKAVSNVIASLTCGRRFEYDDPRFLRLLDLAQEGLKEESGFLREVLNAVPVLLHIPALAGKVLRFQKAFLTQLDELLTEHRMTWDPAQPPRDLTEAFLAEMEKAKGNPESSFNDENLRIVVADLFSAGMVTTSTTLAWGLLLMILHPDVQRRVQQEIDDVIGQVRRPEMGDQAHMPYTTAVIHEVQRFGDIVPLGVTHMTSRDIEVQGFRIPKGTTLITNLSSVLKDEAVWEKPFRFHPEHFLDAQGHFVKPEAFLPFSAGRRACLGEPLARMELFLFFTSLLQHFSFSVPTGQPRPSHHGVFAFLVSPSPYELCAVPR

Consider `CC(C)n1ccc(S(=O)(=O)NC(=O)Nc2c3c(cc4c2CCC4)CCC3)n1` [MCC7840], for which the concentration for half-maximal inhibition (IC50) in series [1] was more than 50 µM. The unbound share (fraction unbound) in series [2] (Mouse % PPB, plasma protein binding) is 0.005. In addition, the fraction unbound in series [2] (Plasma protein binding, stated in text with mouse pharmacokinetics) is less than 0.01. Besides, the half-maximal inhibitory concentration (IC50) in series [3] is more than 50 µM. The “Gadolinium T1 relaxation time decrease (blood-brain barrier leakage)” value in series [4] was “absent”. The “Loss of 18F-FBCTT signal (DAT)” value in series [4] (Day 26) is “significant, but not complete protection”. Besides, in series [4] (Day 28), the “6-OHDA-induced increase in plasma IL-1β” value was “effectively suppressed” and the “Reduced ipsilateral 18F-FDOPA signal (dopamine uptake)” value was “significantly protected”. Besides, the Rotarod motor deficit entry in series [5] (4 months post-injection, preventative (pre-PFF) group, 0.3 mg/ml drinking water) was “significantly attenuated”. For the same compound, in series [5] (4 months, pre-treated mice), the “Balance beam crossing latency” value is on record as “significantly reduced”. Moreover, in series [5] (setting [7]), the Balance beam performance result was “improved balance beam performance” and the “Rotarod progressive motor decline” value is recorded as “significantly protected”. Also, the “Striatal dopamine loss and reduced metabolite levels” value in series [5] (both dosing regimens, after PET imaging) was “significantly protected”. In addition, the “18F-DPA-714 PET signal” value in series [5] (both preventative and therapeutic groups, PET/MRI at 12 months (11 months in methods)) is given as “significantly reduced”. Besides, in series [5] (preventative group), the “PFF-Syn-induced plasma IL-1β increase” value is recorded as “fully suppressed”. The “Reduction of PFF-Syn-induced plasma IL-1β” value in series [5] (therapeutic group (from 4 months post-PFF)) is listed as approximately 70%. The same compound registered a half-life in series [6] of more than 2.42 h.
